# Values quoted from earlier work, collected in patent US6417349B1, “Water-soluble extract of asiaticoside and madecassoside from Centella asiatica and isolating method thereof” (priority 1997, dated 2002).
# Settings: prior-art components
row,solubility in water,Structure (SMILES)
1,water-insoluble,C[C@H]1[C@H](C)CC[C@]2(C(=O)O)CC[C@]3(C)C(=CC[C@@H]4[C@@]5(C)C[C@@H](O)[C@H](O)[C@@](C)(CO)[C@@H]5CC[C@]43C)[C@H]12 [asiatic acid]
2,water-insoluble,CC1CCC2(C(=O)O)CCC3(C)C(=CCC4C5(C)CC(O)C(O)C(C)(C)C5C(O)CC43C)C2C1C (stereo not drawn) [madasiatic acid]
3,water-insoluble,C[C@H]1[C@H](C)CC[C@]2(C(=O)O)CC[C@]3(C)C(=CC[C@@H]4[C@@]5(C)C[C@@H](O)[C@H](O)[C@@](C)(CO)[C@@H]5[C@H](O)C[C@]43C)[C@H]12 [madecassic acid]
